According to ChEMBL document CHEMBL1201862, “PubChem BioAssay data set” (2004):
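Interpolation was linear, between the two tested concentrations surrounding the appropriate level; five concentrations were tested over 48 hours in 96-well plates. At the GI50, growth is halved.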 Active and inactive are the calls of the source. No stated cut-off is given here; in the data, active = GI50 up to about 1.1 µM and inactive = higher.

Experiments:
Assay in all cases: NCI tumour cell line growth inhibition, 48 h
[1] = system: SK-MEL-2
[2] = system: NCI-H460
[3] = system: OVCAR-3
[4] = system: Malme-3M
[5] = system: SK-MEL-5
[6] = system: OVCAR-4
[7] = system: DLD-1
[8] = system: CCRF-CEM
[9] = system: HCT-116
[10] = system: A549
[11] = system: RPMI-8226
[12] = system: MOLT-4
[13] = system: HCT-15
[14] = system: OVCAR-5
[15] = system: HOP-92
[16] = system: IGROV-1
[17] = system: SR
[18] = system: UACC-257
[19] = system: MDA-N
[20] = system: NCI/ADR-RES

Structure (SMILES)	GI50 [1]	GI50 [2]	GI50 [3]	GI50 [4]	GI50 [5]	GI50 [6]	GI50 [7]	GI50 [8]	GI50 [9]	GI50 [10]	GI50 [11]	GI50 [12]	GI50 [13] [µM]	GI50 [14]	GI50 [15]	GI50 [16]	GI50 [17]	GI50 [18]	GI50 [19]	GI50 [20]
N#CC1C2CCC3(CC2CCN1C(=O)c1ccccc1)OCCO3 (stereo not given)	2.37 µM (inactive)	> 100 µM (inactive)	> 100 µM (inactive)	> 100 µM (inactive)	> 100 µM (inactive)	> 100 µM (inactive)	> 100 µM (inactive)	> 100 µM (inactive)	> 100 µM (inactive)	> 100 µM (inactive)	> 100 µM (inactive)	> 100 µM (inactive)	> 100	> 100 µM (inactive)	> 100 µM (inactive)	> 100 µM (inactive)	> 100 µM (inactive)	> 100 µM (inactive)	–	–
CC(C)Cc1ccc(C(C)/C=C2\CCC(CN3CCCCC3)C2=O)cc1 (stereo not given)	13.3 µM (inactive)	26.7 µM (inactive)	4.03 µM (inactive)	16.6 µM (inactive)	13.5 µM (inactive)	3.78 µM (inactive)	2.33 µM (inactive)	1.5 µM (inactive)	3.87 µM (inactive)	20 µM (inactive)	0.611 µM (active)	1.63 µM (inactive)	2.75	17.4 µM (inactive)	10.1 µM (inactive)	4.25 µM (inactive)	1.65 µM (inactive)	12.7 µM (inactive)	3.7 µM (inactive)	–
CSc1nc(NC2OC(COC(C)=O)C(OC(C)=O)C(OC(C)=O)C2OC(C)=O)c(/N=C\C=N/c2c(NC3OC(COC(C)=O)C(OC(C)=O)C(OC(C)=O)C3OC(C)=O)nc(SC)n(C)c2=O)c(=O)n1C (stereo not given)	32.7 µM (inactive)	> 100 µM (inactive)	> 15.5 µM (inactive)	81.5 µM (inactive)	> 100 µM (inactive)	> 100 µM (inactive)	> 100 µM (inactive)	> 100 µM (inactive)	> 100 µM (inactive)	> 100 µM (inactive)	> 100 µM (inactive)	> 100 µM (inactive)	> 100	> 100 µM (inactive)	25.9 µM (inactive)	65.8 µM (inactive)	> 100 µM (inactive)	> 100 µM (inactive)	> 100 µM (inactive)	> 100 µM (inactive)
CCOC(=O)C1=C(OC(OCC)C(CC)[Se]c2ccccc2)CCC1 (stereo not given)	31.5 µM (inactive)	39.7 µM (inactive)	23.7 µM (inactive)	4.58 µM (inactive)	12.6 µM (inactive)	13.2 µM (inactive)	19.3 µM (inactive)	11 µM (inactive)	20.4 µM (inactive)	77.4 µM (inactive)	19.3 µM (inactive)	20.1 µM (inactive)	14.7	23.1 µM (inactive)	19.3 µM (inactive)	25.6 µM (inactive)	19.3 µM (inactive)	28 µM (inactive)	–	–
